Several values for one entry are separate records, joined by “and”; a condition that tells them apart may be missing. Equal entries are not always repeated. Entries after “also recorded” stand apart in the source; their conditions may differ. Marks after values point to notes of the source that are not given here.
How the values were obtained:
Assay type in all cases: cell-based, human
[1] = tested on: peripheral blood CD3+ T cells; test: TCR/CD3 (anti-CD3) stimulated T cell proliferation, [3H]-thymidine incorporation
Experimental: (§1) Human peripheral blood CD3+ T cells were purified by negative selection from 50 ml of heparin-treated blood from normal healthy donors (Ullevaal University Hospital Blood Center, Oslo. Norway) or patients. Briefly, peripheral blood mononuclear cells were isolated by density gradient (Lymphoprep, NycoMed, Oslo, Norway) centrifugation followed by negative selection using monodisperse magnetic beads directly coated with antibodies to CD14 and CD19 and rat anti-mouse IgG beads coated with antibodies to CD56 and a magnet. Magnetic beads were all from Dynal (Oslo, Norway, cat. no. 111.12, 111.04, and 110.11. respectively) whereas anti-CD56 antibody was from Pharmingen (San Diego, Calif., cat. no. 31660.d). All steps were performed at 4° C.
as §1, with “Peripheral blood” for “Human peripheral blood”, “Center, Oslo,” for “Center, Oslo.”, “selection using,” for “selection using”, “and 110.11,” for “and 110.11.”, “Calif., eat.” for “Calif., cat.”
Proliferation assays were performed by incubation of 0.75×10^6 CM+ T cells/ml in a 100 μl volume in that-bottom 96-well microtiter plates. Activation was achieved by subsequent addition of monodisperse magnetic beads coated with sheep anti-mouse IgG (Dynal. cat. no. 110.02) at a cell:bead ratio of 1:1 followed by addition of antiCD3 (clone SpvT3b) at a final dilution of 1:125,000 for the experiments shown. The optimal concentration of antibody was titrated carefully in the initial setup and parallel experiments at several different dilutions of antibody was always performed. Proliferation was analyzed by incubating, cells for 72 hours during which [^3H]thymidine was included for the last 16 hours. Cells were washed and harvested onto filters using a Scatron harvester (Suffolk, UK) and subsequently analyzed by β-scintillation counting. cAMP analogs, when used, were added 30 min prior to activation by addition of […] antibodies. 8-CPT-cAMP was from Sigorna (St. Louis, Mo.) and Sp- and Rp-8-Br-cAMPS were from BioLog Life Science Company (Bremen, Germany) and were all dissolved to concentrations of 4 to 10 mM in PBS and concentrations calculated using the extinction coefficients given by the manufacturer.

[2] = tested on: PBMC; test: anti-CD3 stimulated proliferation of PBMC
Experimental: Whereas more than 100% increase in anti-CD3 induced lymphocyte proliferation was found in 7 of the CVI patients, 5 of the patients had less than 40% increase in proliferation when the cAMP antagonist was added to cells in vitro.

[3] = tested on: CD4+ T lymphocytes; test: BrdU incorporation (DNA synthesis) by flow cytometry, CD4+ subset
Experimental: (§2) We next, by flow cytometry analysis of BrdU incorporation, examined anti-CD3 stimulated T lymphocyte DNA synthesis in the presence and absence of Rp-8-Br-cAMPS in subsets of CD4^+ and CD8^+ T lymphocytes in 8 CVI patients with impaired lymphocyte function and 7 controls. In CVI patients there was a significant increase in percent of BrdU^+ CD4^+ T lymphocytes when cAMP antagonist was added to cell culture [55.8 (40.7–77.0)% versus 69.6 (50.5–90.0)%, without and with antagonist, respectively, P<0.03]. In most patients the maximal increase was found at the highest concentration of Rp-8-Br-cAMPS (1000 μM).

[4] = tested on: CD8+ T lymphocytes; test: BrdU incorporation (DNA synthesis) by flow cytometry, CD8+ subset; details: CVI patients and controls
Experimental: as §2

[5] = tested on: IL-2; test: IL-2 levels in supernatants from anti-CD3 stimulated T lymphocytes (ELISA)
Experimental: After 20 h of culture, cellfree supernatants were harvested and stored at −80° C. until analysis. The IL-2 levels in supernatants were determined by an ELISA ([…], Minneapolis, Minn.).

[6] = tested on: IL-2 receptor; test: IL-2 receptor binding in anti-CD3 stimulated T cells (flow cytometry)
[7] = median in 7 CVI patients, 1000 μM
[8] = median in 8 healthy controls, most pronounced effect at 100 μM

Nc1ncnc2c1nc(Br)n2C1OC2COP(O)(=S)OC2C1O (stereo not drawn) [Rp-8-Br-cAMPS, Rp-8-Bromo-cAMP-phosphorothioate]
Proliferation level relative to levels in healthy controls ([1]; CVI patients' T cells with Rp-8-Br-cAMPS): ~25% | IL-2 concentration with enhancing effect comparable to that of cAMP antagonist ([1]; CVI patients, FIG. 7): ~15 ng/mL | Combined enhancing effects of Rp-8-Br-cAMPS and IL-2 on T lymphocyte proliferation ([1]; CVI patients, 1000 μM Rp-8-Br-cAMPS with IL-2): additive | Increase in proliferation by Rp-8-Br-cAMPS Fold increase compared to untreated ([1]; T cells from HIV+ asymptomatic patients, n = 8, median (25 to 75% range)): 1.50(1.29–1.73)^b fold | Increase in proliferation by Rp-8-Br-cAMPS Fold increase compared to untreated ([1]; T cells from HIV+ symptomatic patients, n = 10, median (25 to 75% range)): 1.62(1.48–2.00)^w fold | Increase in TCR/CD3-induced proliferation by antagonist alone ([1]; T cells from HIV-infected patients, at higher concentrations, FIG. 3D): more than 2 fold | Reversal of Sp-8-Br-cAMPS inhibition of proliferation by complementary antagonist ([1]; T cells from a HIV-infected patient, FIG. 3C): further increased the proliferation above the levels in untreated cells | Reversal of Sp-8-Br-cAMPS inhibition of proliferation by complementary antagonist ([1]; T cells from normal blood donors / healthy controls, increasing concentrations): almost completely reversed | Increase in proliferation by Rp-8-Br-cAMPS Fold increase compared to untreated ([1]; T cells from normal controls, n = 8, median (25 to 75% range)): 1.01(0.93–1.14) fold | Increase in proliferation by Rp-8-Br-cAMPS Fold increase compared to untreated ([1]; T cells from patients on triple combination therapy, n = 9, median (25 to 75% range)): 1.53(1.11–1.77)^o fold | Increase in proliferation by Rp-8-Br-cAMPS (fold increase) ([1]; T cells of individual CVI patients #1-#7): 1.73 fold and 2.10 fold and 1.87 fold and 1.34 fold and 1.37 fold and 2.45 fold and 3.67 fold | Increase in proliferation by Rp-8-Br-cAMPS Fold increase compared to untreated ([1]; T cells of individual HIV-infected patients #1-#18 without protease inhibitor therapy (Table 2a)): 2.81 fold and 2.02 fold and 2.73 fold and 1.48 fold and 1.77 fold and 1.96 fold and 1.5 fold and 1.79 fold and 1.74 fold and 1.3 fold and 1.49 fold and 1.43 fold and 1.46 fold and 1.67 fold and 1.6 fold and 1.27 fold and 1.39 fold and 1.16 fold | Increase in proliferation by Rp-8-Br-cAMPS Fold increase compared to untreated ([1]; T cells of individual patients #1-#9 receiving highly active antiretroviral therapy (Table 2b)): 2.79 fold and 2.65 fold and 1.77 fold (2×) and 1.53 fold and 1.04 fold and 1.52 fold and 0.98 fold and 1.11 fold | Increase in proliferation by Rp-8-Br-cAMPS (fold increase) ([1]; median in 7 CVI patients): 1.87^+ fold | Increase in proliferation by Rp-8-Br-cAMPS (fold increase) ([1]; median in 8 healthy controls): 1.01 fold | Effect of antagonist alone on stimulated proliferation ([1]; normal T cells / healthy controls): No increased T cell proliferation; also recorded: did not alter proliferation; also recorded: did not further enhance T cell proliferation | Increase in anti-CD3 stimulated proliferation ([1]; purified T cells, 3 of 7 CVI patients): > 100% | Increase in anti-CD3 induced lymphocyte proliferation ([2]; 5 of the 20 CVI patients): less than 40% | Increase in anti-CD3 induced lymphocyte proliferation ([2]; 7 of the 20 CVI patients): more than 100% | Effect on anti-CD3 stimulated lymphocyte proliferation ([2]; CVI group): significant and concentration-dependent improvement | Effect on anti-CD3 stimulated lymphocyte proliferation ([2]; normal blood donors): did not significantly alter proliferation | percent of BrdU+ CD4+ T lymphocytes ([3]; 8 CVI patients, with antagonist (without: 55.8 (40.7–77.0)%), maximal mostly at 1000 μM): 69.6 (50.5–90.0) % | Effect on DNA synthesis in CD4+ lymphocytes ([3]; healthy controls): No effect | Change in percent of BrdU+ CD8+ cells [4]: no significant increase | Effect on IL-2 levels in supernatants ([5]; T lymphocytes from CVI patients): marked and concentration-dependent increase | Increase in IL-2 level by Rp-8-Br-cAMPS (fold increase) ([5]; individual CVI patients #1-#7, 1000 μM, 20 h culture): 4.50 fold and 4.37 fold and 2.66 fold and 2.49 fold and 2.34 fold and 1.89 fold and 1.77 fold | Highest IL-2 level when adding Rp-8-Br-cAMPS ([5]; individual CVI patients #1-#7, highest at 1000 μM, 20 h culture): 144 pg/mL and 284 pg/mL and 210 pg/mL and 249 pg/mL and 262 pg/mL and 246 pg/mL and 232 pg/mL | Highest IL-2 level when adding Rp-8-Br-cAMPS [5, 7]: 246^+ pg/mL | Increase in IL-2 level by Rp-8-Br-cAMPS (fold increase) [5, 7]: 2.50^+ fold | Highest IL-2 level when adding Rp-8-Br-cAMPS [5, 8]: 799 pg/mL | Increase in IL-2 level by Rp-8-Br-cAMPS (fold increase) [5, 8]: 1.28 fold | Effect on IL-2 receptor binding ([6]; CD4+ lymphocytes from CVI patients): moderate but significant increase | Effect on IL-2 receptor binding ([6]; cells from healthy controls): No such increase
